Assay [1] addresses T1, full-length human A2AR (Homo sapiens, UniProt P29274). Type of assay: binding. The note with it: mean ± SEM, n=16; for Kd: read-out: Kinetic KD.
Assay [2] addresses T1, full-length human A2AR. It counts as binding. The note with it: for receptor-ligand complexes formed at equilibrium: saturation.
[3] abbreviates: analytical solution, fixed α 5.6%.
The mark [4] stands for this setting: numerical solution, fixed KD 22 nM.

Consider 1 molecule from article PMC5896570 (SLAS discovery : advancing life sciences R & D, 2016).

“And” between values parts separate entries of the source, which are not always exact repeats. Equal values may be shown once. Read-outs that look alike come from different tables or passages of the source.

T1 sequence (P29274 whole entry): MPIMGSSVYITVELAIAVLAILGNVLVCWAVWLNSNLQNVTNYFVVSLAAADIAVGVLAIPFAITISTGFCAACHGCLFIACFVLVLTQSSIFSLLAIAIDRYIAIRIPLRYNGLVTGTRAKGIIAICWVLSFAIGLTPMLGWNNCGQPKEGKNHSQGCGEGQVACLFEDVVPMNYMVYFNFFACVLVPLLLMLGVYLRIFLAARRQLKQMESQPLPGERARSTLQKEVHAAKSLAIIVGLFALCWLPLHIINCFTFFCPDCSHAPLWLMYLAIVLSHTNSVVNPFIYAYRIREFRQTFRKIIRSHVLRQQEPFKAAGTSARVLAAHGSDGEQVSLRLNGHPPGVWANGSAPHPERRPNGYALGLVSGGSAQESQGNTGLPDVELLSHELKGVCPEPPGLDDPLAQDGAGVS

Broadly, the Kd is the equilibrium constant for the complex coming apart. Turning to `CCNC(=O)[C@H]1O[C@@H](n2cnc3c(N)nc(NCCc4ccc(CCC(=O)NCCNC(=S)Nc5ccc6c(c5)C(=O)OC6(c5ccc(O)cc5)c5ccc(O)cc5)cc4)nc32)[C@H](O)[C@@H]1O` [FITC-APEC, 2-[2-[4-[2-[2-[1,3-Dihydro-1,1-bis (4-hydroxyphenyl)-3-oxo-5-isobenzofuranthioureidyl]ethylaminocarbonyl]ethyl]phenyl]ethylamino]-5′--ethylcarboxamidoadenosine], on full-length human A2AR [1] (setting [3]), the Residence time stood at 22 ± 1.5 min, the koff is listed as 7.7 ± 0.5 x10^−4 s^−1, the kon is recorded as 1.5 ± 0.2 x10^4 (M s)^−1 and the Kd worked out at 73 ± 15 nM. At full-length human A2AR [1] (setting [4]), the Residence time amounted to 47 ± 3.8 min, the koff is 3.6 ± 0.3 x10^−4 s^−1, the “α (Bmax/RT)” value was 6.8 ± 1.1% and the equilibrium dissociation constant (Kd) turned out to be 22 ± 2.3 nM. The Bmax on full-length human A2AR [2] (equilibrium, Scatchard analysis, ± SEM, n=5) is ~ 5.6 % of RT and 5.6 ± 0.4 % of RT. Besides, on full-length human A2AR [2] (receptor concentration 160 nM), the “receptor-ligand complexes formed at equilibrium” value is given as 9 nM. Further, the “receptor-ligand complexes formed at equilibrium” value at full-length human A2AR [2] (receptor concentration 480 nM) came out at 25 nM.
